The values that follow come from US7816519B2, “Derivatives of 1,2-dihydro-7-hydroxyquinolines containing fused rings” (Life Technologies Corporation, priority 2000, dated 2010).

A short description of series [1]: Fluorescence quantum yield determination against sulforhodamine 101 reference. Format: physicochemical. The settings on record: excited at 560 nm, triplicate. The protocol:
The fluorescence quantum yield of Compound 41 is determined using sulforhodamine 101 (in ethyl alcohol) as the reference standard (φF=0.90). The concentrations of sulforhodamine 101 (the reference) and Compound 41 are adjusted to obtain an absorbance of 0.25 (in 1 cm cell) at 560 nm. The sample and reference are each excited at 560 nm and their fluorescence spectra obtained. The fluorescence quantum yield of the sample (φF^X) in the indicated solvent was calculated from the following formula, considering that the peak area (AR) of the emission spectrum of the reference and that of the tested dye (AX) can be readily determined: φF^X=AxφF^RAR where φF^R and φF^X are the fluorescence quantum yields of the reference and the testing dye. The measurements are done in triplicate and the estimated errors are no more than 1%. The quantum yields of Compound 41 are determined to be 0.72 (in methyl alcohol) and 0.68 (in water) respectively.

Series [2] has as its system Mouse monocyte-macrophage, Abelson Leukemia Virus Transformed (RAW264.7) cells. Description: Discrimination of live and dead cells by flow cytometry. The settings on record: heat-killed fraction (50° C., 20 minutes), 30 minutes on ice. The series is classed as cell-based. As to the method: Selected dyes of the invention are highly polar, and therefore relatively impermeable to the membranes of live cells. These dyes can therefore be used to discriminate cells that have intact versus compromised cell membranes in a single-color assay as follows: Mouse monocyte-macrophage, Abelson Leukemia Virus Transformed (RAW264.7) cells are trypsinized and washed with phosphate buffered saline (PBS), pH 7.2. Approximately 8-10 million cells suspended in 180 μL of PBS, pH 7.2 are placed in a glass test tube and heated in a water bath at 50° C. for 20 minutes to kill a fraction of the cells. […] The mixture is incubated on ice for 30 minutes and washed twice with PBS, followed by addition of 200 μL of PBS, pH 7.2. An identical aliquot of cells is treated with 2 μL of a 150 μM solution of propidium iodide in water (as a control for dead cells).
A general note: A flow cytometer gives signals particle by particle.

Series [3] relates to Neurons from zebrafish embryos. Description: Neuronal tracing using a hydrazide-labeled fluorophore (microinjection). The series is classed as cell-based. The text has this: Neurons from zebrafish embryos are microinjected with Compound 44, using standard methods as described by Blankenfeld et al. (J. NEUROSCI. METH. 36, 309 (1991)). […] The staining is fixable in the cells using formaldehyde and standard fixing methods.

Series [4] can be described thus: Determination of the Ca2+ binding affinity (fluorescence titration, method of Tsien et al.). As to the method: The fluorescence response and dissociation constant of Compound 58 is determined using the method described by Tsien et al. METH. ENZYM. 172, 230 (1989). Compound 58 (1 mg) is dissolved in deionized water and 5 µL of this solution is diluted into 3 mL of each of two buffers, which are cross diluted to arrive at a series of Ca^2+ concentrations between zero and 35 µM. Emission spectra of the dye solutions are scanned between dilutions to generate a family of curves. Each of these curves has maximal fluorescence emission at approximately 640 nm with an increase in fluorescence emission intensity with increasing Ca^2+ concentration. This intensity change is plotted against the concentration of free Ca^2+ to give a value for the dissociation constant of the indicator. The calculated dissociation constant at 20° C. is 57.5 μM.

The conditions of series [5]: in ethyl alcohol; cited from earlier work.
Series [6] is described as follows: Fluorescence of selected protein conjugates. Format: physicochemical. The note with it: protein conjugates prepared with Compound 42 as in Example 47. The protocol:
A series of dye conjugates of goat anti-mouse IgG, streptavidin and other proteins, including R-phycoerythrin (R-PE) are prepared by standard means (Haugland et al., METH. MOL. BIOL. 45, 205 (1995); Haugland, METH. MOL. BIOL. 45, 223 (1995); Haugland, METH. MOL. BIOL. 45, 235 (1995)) using Compound 42 and a succinimidyl ester derivative of CY-5 dye.
A solution of the desired protein is prepared at 10 mg/mL in 0.1 M sodium bicarbonate. The labeling reagents are dissolved in DMF at 10 mg/mL. Predetermined amounts of the labeling reagents are added to the protein solutions with stirring. A molar ratio of 10 equivalents of dye to 1 equivalent of protein is typical, though the optimal amount varies with the particular labeling reagent, the protein being labeled and the protein's concentration, and is determined empirically. The reaction mixture is incubated at room temperature for one hour, or on ice for several hours. The dye-protein conjugate is typically separated from free unreacted reagent by size-exclusion chromatography on BIO-RAD P-30 resin equilibrated with PBS. The initial, protein-containing colored band is collected and the degree of substitution is determined from the absorbance at the absorbance maximum of each fluorophore, using the extinction coefficient of the free fluorophore.

With `CN1c2cc3c(cc2-c2sc(S(=O)(=O)O)cc2C1(C)C)C(c1c(F)c(SCC(=O)O)cc(F)c1S(=O)(=O)[O-])=c1cc2c(cc1O3)=[N+](C)C(C)(C)c1cc(S(=O)(=O)O)sc1-2` [Compound 41], the fluorescence quantum yield is reported as 0.72 in series [1] (in methyl alcohol) and 0.68 in series [1] (in water).
`CN1c2cc3c(cc2-c2sc(S(=O)(=O)O)cc2C1(C)C)C(c1c(F)c(SCC(=O)ON2C(=O)CCC2=O)cc(F)c1S(=O)(=O)[O-])=c1cc2c(cc1O3)=[N+](C)C(C)(C)c1cc(S(=O)(=O)O)sc1-2` [Compound 42]: the “dead cell populations stained, compared with propidium iodide” value in series [2] is given as “very similar”.
As to `CN1c2cc3c(cc2-c2sc(S(=O)(=O)O)cc2C1(C)C)C(c1c(F)c(SCC(=O)NN)cc(F)c1S(=O)(=O)[O-])=c1cc2c(cc1O3)=[N+](C)C(C)(C)c1cc(S(=O)(=O)O)sc1-2` [Compound 44], the “filling and fluorescence of microinjected neurons” value in series [3] is “neurons rapidly fill with the dye throughout their volume and their red fluorescence is readily observable”.
For `Cc1ccc(N(CC(=O)O)CC(=O)O)c(OCCOc2cc(C3=c4cc5c(cc4Oc4cc6c(cc43)-c3sc4ccccc4c3C(C)(C)N6C)=[N+](C)C(C)(C)c3c-5sc4ccccc34)ccc2N(CC(=O)[O-])CC(=O)O)c1` [Compound 58], the maximal fluorescence emission result in series [4] (Ca2+ buffer series, intensity increases with increasing Ca2+) is listed as “approximately 640 nm”. The Kd in series [4] (at 20° C., free Ca2+ between zero and 35 µM, read-out: dissociation constant (Ca2+)) came to 57.5 µM.
With `O=S(=O)([O-])c1cc(S(=O)(=O)O)ccc1C1=c2cc3c4c(c2Oc2c1cc1c5c2CCCN5CCC1)CCC[N+]=4CCC3` [sulforhodamine 101], in series [5], the “fluorescence quantum yield of reference standard (φF)” value was 0.90.
As for Wheat Germ Agglutinin, the “Quantum Yield” value in series [6] came out at 0.56.
